≈ marks a conversion by molar mass, not a printed value.
Tested on: P388
Assay: Cytotoxicity against mouse P388 cells
Type: functional
Details: read-out: ED50 (the source's name)

Row | SMILES | EC50 [µg/mL]
1 | C[C@@H]1O[C@@H](O[C@@H]2[C@@H](O)[C@H](OCCc3ccc(O)c(O)c3)O[C@H](CO)[C@H]2OC(=O)/C=C/c2ccc(O)c(O)c2)[C@H](O)[C@H](O)[C@H]1O [ACETOSIDE] | 2.6 (≈ 4.16 µM)
2 | C[C@@H]1O[C@@H](O[C@@H]2[C@@H](O)[C@H](OCCc3ccc(O)c(O)c3)O[C@H](COC(=O)/C=C/c3ccc(O)c(O)c3)[C@H]2O)[C@H](O)[C@H](O)[C@H]1O [ISOACTEOSIDE] | 10 (≈ 16 µM)

From ChEMBL document CHEMBL1151149, “Antineoplastic agents, 107. Isolation of acteoside and isoacteoside from Castilleja linariaefolia” (1990)
